Assays:
[1] = system: HCT116; test: Cell proliferation inhibition assay (MTT, CellTiter96); format: cell-based; conditions: Homo sapiens, HCT-116; HCT116 cells, 72 h with compound, MTT readout
Summary of the method: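 Cells seeded 2000/well in RPMI-1640 with 2% FBS for 24 h, then exposed to compounds (final DMSO ≤1%) for 72 h. Viability read by MTT conversion (CellTiter96), reflecting mitochondrial metabolic activity.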

[2] = molecular target: T1, recombinant CK2A1 (Homo sapiens, UniProt P68400); test: CK2 kinase assay (CK2A1), [γ-33P]ATP filter-binding; format: biochemical; conditions: recombinant CK2A1 10 nM, ATP 25 μM, 10 μM peptide substrate, 30° C. 1 h
T1 construct: purchased Invitrogen
T1 sequence (P68400 whole entry): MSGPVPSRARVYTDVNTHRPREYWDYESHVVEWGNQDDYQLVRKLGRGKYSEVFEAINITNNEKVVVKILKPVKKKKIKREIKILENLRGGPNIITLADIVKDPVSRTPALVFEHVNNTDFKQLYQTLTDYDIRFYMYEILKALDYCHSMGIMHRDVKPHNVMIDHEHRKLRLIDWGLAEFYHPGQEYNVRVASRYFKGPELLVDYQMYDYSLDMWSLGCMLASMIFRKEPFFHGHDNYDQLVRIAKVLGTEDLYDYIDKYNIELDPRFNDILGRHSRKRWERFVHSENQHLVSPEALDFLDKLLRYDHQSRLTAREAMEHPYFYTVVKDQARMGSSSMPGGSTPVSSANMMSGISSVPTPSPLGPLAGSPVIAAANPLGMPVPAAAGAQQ
Summary of the method: (§1)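 Recombinant human CK2A1 or CK2A2 reactions with peptide substrate and [γ-33P]ATP were run at 30° C for 1 h. Products were captured on P81 phosphocellulose filters and counted by liquid scintillation. IC50 is the concentration giving 50% inhibition of activity.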

[3] = molecular target: T2, recombinant CK2A2 (Homo sapiens, UniProt P19784); test: CK2 kinase assay (CK2A2), [γ-33P]ATP filter-binding; format: biochemical; conditions: recombinant CK2A2 5 nM, ATP 5 μM, 10 μM peptide substrate, 30° C. 1 h
T2 construct: purchased Upstate Biotechnology
T2 sequence (P19784 whole entry): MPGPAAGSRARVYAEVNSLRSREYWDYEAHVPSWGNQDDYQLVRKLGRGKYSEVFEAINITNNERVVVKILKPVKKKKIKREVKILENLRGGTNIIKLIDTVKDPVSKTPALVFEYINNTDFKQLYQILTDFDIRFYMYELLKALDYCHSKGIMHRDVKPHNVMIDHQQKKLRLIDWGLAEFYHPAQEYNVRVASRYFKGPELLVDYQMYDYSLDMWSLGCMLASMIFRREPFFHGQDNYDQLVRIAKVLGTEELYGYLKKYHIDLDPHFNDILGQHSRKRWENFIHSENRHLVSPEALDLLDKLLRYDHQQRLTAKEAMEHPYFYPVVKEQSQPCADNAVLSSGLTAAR
Summary of the method: as §1

Row | IC50 [1] [nM] | IC50 [2] [nM] | IC50 [3] [nM] | Compound
1 | 80 | 5.5 | 1 | CC(C)n1ccc(Nc2cc(N[C@H]3CC[C@H](NC(=O)CC#N)CC3)nn3c(C(=O)Nc4ccnc(Cl)c4)cnc23)n1 [Example 559, N-(2-chloro-4-pyridinyl)-6-((trans-4-((cyanoacetyl)amino)cyclohexyl)amino)-8-((1-isopropyl-1H-pyrazol-3-yl)amino)imidazo[1,2-b] pyridazine-3-carboxamide]
2 | 870 | 12.5 | 0.8 | Cc1cc(Nc2cc(N[C@H]3CC[C@H](NC(=O)CC#N)CC3)nn3c(C(=O)Nc4ccnc(Cl)c4)cnc23)no1 [Example 560, N-(2-chloro-4-pyridinyl)-6-((trans-4-((cyanoacetyl)amino)cyclohexyl)amino)-8-((5-methyl-3-isoxazolyl)amino) imidazo[1,2-b]pyridazine-3-carboxamide]
3 | 60 | 9.7 | 1.2 | N#CCC(=O)N[C@H]1CC[C@H](Nc2cc(Nc3nccs3)c3ncc(C(=O)Nc4ccnc(Cl)c4)n3n2)CC1 [Example 562, N-(2-chloro-4-pyridinyl)-6-((trans-4-((cyanoacetyl)amino)cyclohexyl)amino)-8-(1,3-thiazol-2-ylamino)imidazo [1,2-b]pyridazine-3-carboxamide]
4 | 890 | 428 | 97 | O=C(Nc1ccnc(Cl)c1)c1cnc2c(NC3CC3)cc(NC3CCSCC3)nn12 [Example 571, N-(2-chloro-4-pyridinyl)-8-(cyclopropylamino)-6-(tetrahydro-2H-thiopyran-4-ylamino)imidazo[1,2-b]pyridazine-3-carboxamide]
5 | 800 | 306 | 73 | O=C(Nc1ccnc(Cl)c1)c1cnc2c(NC3CC3)cc(NC3CC[S+]([O-])CC3)nn12 (stereo not drawn) [Example 572, 4-((3-((2-chloro-4-pyridinyl)carbamoyl)-8-(cyclopropylamino)imidazo[1,2-b]pyridazin-6-yl)amino)tetrahydro-2H-thiopyranium-1-olate]

From US8389527B2, “Substituted imidazopyridazines useful as kinase inhibitors” (Bristol-Myers Squibb Company, priority 2008, dated 2013)
